We go through 13 molecules from ChEMBL document CHEMBL3603829, “Metronidazole hydrazone conjugates: Design, synthesis, antiamoebic and molecular docking studies” (Bioorg Med Chem Lett, 2015).

Molecules are shown by their SMILES.

One series relates to Entamoeba histolytica. The series is described as follows: Antiamoebic activity against trophozoite stage of Entamoeba histolytica HM-1:IMSS after 72 hrs by microdilution method. In kind it is functional, organism-based. On the technique in general: Dilution methods test growth across graded concentrations, often in twofold steps.
A short description of series [1]: Cytotoxicity against human HeLa cells assessed as cell viability at 208 nM after 24 hrs by MTT assay relative to control. In kind it is cell-based. The settings on record: read-out: Activity.
The nature of series [2]: Cytotoxicity against human HeLa cells assessed as cell viability at 208 nM after 48 hrs by MTT assay relative to control. The format is cell-based. The conditions noted are these: read-out: Activity.
A short description of series [3]: Cytotoxicity against human HeLa cells assessed as cell viability at 208 nM after 72 hrs by MTT assay relative to control. In kind it is cell-based. The settings on record: read-out: Activity.
Series [4] can be described thus: Cytotoxicity against human HeLa cells assessed as cell viability at 387 nM after 48 hrs by MTT assay relative to control. In kind it is cell-based. The settings on record: read-out: Activity. In general terms: Tetrazolium assays rely on reduction of a dye to a coloured formazan, in cell work by metabolically active cells.
Series [5] in a line: Cytotoxicity against human HeLa cells assessed as cell viability at 387 nM after 72 hrs by MTT assay relative to control. In kind it is cell-based. The settings on record: read-out: Activity.
Series [6] in a line: Cytotoxicity against human HeLa cells assessed as cell viability at 387 nM after 24 hrs by MTT assay relative to control. The format is cell-based. The settings on record: read-out: Activity.
Series [7] is described as follows: Cytotoxicity against human HeLa cells assessed as cell viability at 360 nM after 48 hrs by MTT assay relative to control. In kind it is cell-based. The conditions noted are these: read-out: Activity.
A short description of series [8]: Cytotoxicity against human HeLa cells assessed as cell viability at 360 nM after 72 hrs by MTT assay relative to control. In kind it is cell-based. The settings on record: read-out: Activity.
The nature of series [9]: Cytotoxicity against human HeLa cells assessed as cell viability at 360 nM after 24 hrs by MTT assay relative to control. The format is cell-based. The conditions noted are these: read-out: Activity.
A short description of series [10]: Cytotoxicity against human HeLa cells assessed as cell viability at 490 nM after 24 hrs by MTT assay relative to control. The settings on record: read-out: Activity. The format is cell-based.
Series [11] is described as follows: Cytotoxicity against human HeLa cells assessed as cell viability at 490 nM after 48 hrs by MTT assay relative to control. The format is cell-based. The settings on record: read-out: Activity.
A short description of series [12]: Cytotoxicity against human HeLa cells assessed as cell viability at 490 nM after 72 hrs by MTT assay relative to control. In kind it is cell-based. The conditions noted are these: read-out: Activity.
The nature of series [13]: Cytotoxicity against human HeLa cells assessed as cell viability at 435 nM after 72 hrs by MTT assay relative to control. In kind it is cell-based. The conditions noted are these: read-out: Activity.
Series [14] in a line: Cytotoxicity against human HeLa cells assessed as cell viability at 435 nM after 48 hrs by MTT assay relative to control. The format is cell-based. The settings on record: read-out: Activity.
A short description of series [15]: Cytotoxicity against human HeLa cells assessed as cell viability at 435 nM after 24 hrs by MTT assay relative to control. The format is cell-based. The conditions noted are these: read-out: Activity.
Series [16] is described as follows: Cytotoxicity against human HeLa cells assessed as cell viability at 370 nM after 48 hrs by MTT assay relative to control. In kind it is cell-based. The conditions noted are these: read-out: Activity.
A short description of series [17]: Cytotoxicity against human HeLa cells assessed as cell viability at 370 nM after 72 hrs by MTT assay relative to control. In kind it is cell-based. The conditions noted are these: read-out: Activity.
A short description of series [18]: Cytotoxicity against human HeLa cells assessed as cell viability at 370 nM after 24 hrs by MTT assay relative to control. In kind it is cell-based. The settings on record: read-out: Activity.

For the molecule `Cc1ncc([N+](=O)[O-])n1CCOc1ccc(C=O)cc1`, the IC50 (in general, the concentration at which inhibition is half-maximal) with Entamoeba histolytica was determined as 11.5 µM.

`Cc1ncc([N+](=O)[O-])n1CCOc1ccc(/C=N/NC(=O)c2ccccc2)cc1` gave an IC50 with Entamoeba histolytica of 2.02 µM.

On to `Cc1ncc([N+](=O)[O-])n1CCOc1ccc(/C=N/NC(=O)c2ccc(Cl)cc2)cc1`, for which, in [1], the viability at 24 h, 0.208 µM is 85.9%. Also, it took 0.2 µM to reach half-maximal inhibition in the series with Entamoeba histolytica (IC50). The viability at 48 h, 0.208 µM in series [2] was 93.7%. Also, the viability at 72 h, 0.208 µM in series [3] was found to be 65.9%.

As for `Cc1ncc([N+](=O)[O-])n1CCOc1ccc(/C=N/NC(=O)c2ccc(O)cc2)cc1`, the viability at 48 h, 0.387 µM in series [4] stood at 87.1%. The IC50 in the series with Entamoeba histolytica came to 0.38 µM. Besides, the viability at 72 h, 0.387 µM in [5] is 54.4%. Besides, the viability at 24 h, 0.387 µM in series [6] stood at 81.9%.

For the molecule `Cc1ncc([N+](=O)[O-])n1CCOc1ccc(/C=N/NC(=O)c2ccc([N+](=O)[O-])cc2)cc1`, the viability at 48 h, 0.36 µM in [7] is 88.9%. The molecule also yielded an IC50 in the series on Entamoeba histolytica of 0.36 µM. In addition, the viability at 72 h, 0.36 µM in series [8] came out at 68.3%. Besides, in series [9], the viability at 24 h, 0.36 µM was 78.5%.

In the case of `COc1ccc(C(=O)N/N=C/c2ccc(OCCn3c([N+](=O)[O-])cnc3C)cc2)cc1`, the IC50 with Entamoeba histolytica was found to be 7.12 µM. This counts as single-digit micromolar.

In the case of `Cc1ccc(C(=O)N/N=C/c2ccc(OCCn3c([N+](=O)[O-])cnc3C)cc2)cc1`, the viability at 24 h, 0.49 µM in [10] is 66.2%. The viability at 48 h, 0.49 µM in series [11] amounted to 83.8%. The molecule further came in with an IC50 with Entamoeba histolytica of 0.49 µM. For the same molecule, the viability at 72 h, 0.49 µM in series [12] stood at 50.8%.

For `Cc1ncc([N+](=O)[O-])n1CCOc1ccc(/C=N/NC(=O)c2ccc(N)cc2)cc1`, the viability at 72 h, 0.435 µM in [13] is 60.3%. The viability at 48 h, 0.435 µM in series [14] stood at 80.1%. For the same molecule, in series [15], the viability at 24 h, 0.435 µM was 79.8%. Moreover, in the series with Entamoeba histolytica, the IC50 came out at 0.43 µM.

As to `Cc1ncc([N+](=O)[O-])n1CCOc1ccc(/C=N/NC(=O)c2ccc(C(C)(C)C)cc2)cc1`, the IC50 in the series with Entamoeba histolytica came to 1.98 µM.

As to `Cc1cc(C)cc(C(=O)N/N=C/c2ccc(OCCn3c([N+](=O)[O-])cnc3C)cc2)c1`, the 50% inhibitory concentration (IC50) with Entamoeba histolytica was 5.96 µM.

Take `COc1cc(OC)cc(C(=O)N/N=C/c2ccc(OCCn3c([N+](=O)[O-])cnc3C)cc2)c1`: 4.39 µM corresponded to half-maximal inhibition with Entamoeba histolytica (IC50).

As to `Cc1ncc([N+](=O)[O-])n1CCOc1ccc(/C=N/NC(=O)c2cc(O)cc(O)c2)cc1`, in [16], the viability at 48 h, 0.37 µM worked out at 92.1%. Besides, the IC50 in the series on Entamoeba histolytica turned out to be 0.37 µM. Besides, the viability at 72 h, 0.37 µM in series [17] was found to be 59.8%. The viability at 24 h, 0.37 µM in series [18] was determined as 93.4%.

In the series on Entamoeba histolytica, `COc1cc(C(=O)N/N=C/c2ccc(OCCn3c([N+](=O)[O-])cnc3C)cc2)cc(OC)c1OC` registered an IC50 of 2.6 µM.
